According to ChEMBL document CHEMBL1201862, “PubChem BioAssay data set” (2004):
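Five concentrations, 48 hours, 96-well plates. At the GI50, growth is halved.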 The source made the active and inactive calls. No stated cut-off is given here; in the data, active = GI50 up to about 1.1 µM and inactive = higher.

Experiments:
Experiment in all cases: DTP human tumour cell line panel, 48 h
TK-10 = tested on: TK-10
A549 = tested on: A549
NCI-H460 = tested on: NCI-H460
DLD-1 = tested on: DLD-1
KM-20L2 = tested on: KM-20L2
MOLT-4 = tested on: MOLT-4
SNB-75 = tested on: SNB-75
LXFL 529 = tested on: LXFL 529
786-0 = tested on: 786-0
M14 = tested on: M14
HL-60 = tested on: HL-60
SK-OV-3 = tested on: SK-OV-3
SK-MEL-28 = tested on: SK-MEL-28
NCI-H522 = tested on: NCI-H522
OVCAR-3 = tested on: OVCAR-3
A498 = tested on: A498
SK-MEL-5 = tested on: SK-MEL-5
HT-29 = tested on: HT-29
Malme-3M = tested on: Malme-3M
IGROV-1 = tested on: IGROV-1
UACC-257 = tested on: UACC-257
K562 = tested on: K562
HCC 2998 = tested on: HCC 2998
LOX IMVI = tested on: LOX IMVI
HCT-116 = tested on: HCT-116
KM12 = tested on: KM12
RPMI-8226 = tested on: RPMI-8226
HCT-15 = tested on: HCT-15
U-251 = tested on: U-251
HOP-62 = tested on: HOP-62
COLO 205 = tested on: COLO 205
DMS-114 = tested on: DMS-114
OVCAR-8 = tested on: OVCAR-8
NCI-H23 = tested on: NCI-H23
UO-31 = tested on: UO-31
M19-MEL = tested on: M19-MEL
SF-295 = tested on: SF-295
ACHN = tested on: ACHN
OVCAR-5 = tested on: OVCAR-5
CAKI-1 = tested on: CAKI-1
NCI-H226 = tested on: NCI-H226
SF-539 = tested on: SF-539
SW-620 = tested on: SW-620
SN12C = tested on: SN12C
UACC-62 = tested on: UACC-62
EKVX = tested on: EKVX
CCRF-CEM = tested on: CCRF-CEM
DMS-273 = tested on: DMS-273
OVCAR-4 = tested on: OVCAR-4
SK-MEL-2 = tested on: SK-MEL-2
SNB-78 = tested on: SNB-78
SF-268 = tested on: SF-268
HOP-92 = tested on: HOP-92
SNB-19 = tested on: SNB-19

Question: Which results are given for Nc1ccc(C(=O)NN2C(=O)C(Cl)C2c2cccc(O)c2)cc1 (centres undefined)?
Answer: GI50 (TK-10): 16.7 µM (inactive); GI50 (A549): 19.8 µM (inactive); GI50 (NCI-H460): 14 µM (inactive); GI50 (DLD-1): 14.4 µM (inactive); GI50 (KM-20L2): 17.1 µM (inactive); GI50 (MOLT-4): 11.3 µM (inactive); GI50 (SNB-75): 22.3 µM (inactive); GI50 (LXFL 529): 11.7 µM (inactive); GI50 (786-0): 13.4 µM (inactive); GI50 (M14): 19.4 µM (inactive); GI50 (HL-60): 1.69 µM (inactive); GI50 (SK-OV-3): 19.5 µM (inactive); GI50 (SK-MEL-28): 16.9 µM (inactive); GI50 (NCI-H522): 1.75 µM (inactive); GI50 (OVCAR-3): 15.8 µM (inactive); GI50 (A498): 35.2 µM (inactive); GI50 (SK-MEL-5): 17.6 µM (inactive); GI50 (HT-29): 17.4 µM (inactive); GI50 (Malme-3M): 20.3 µM (inactive); GI50 (IGROV-1): 14.4 µM (inactive); GI50 (UACC-257): 18.3 µM (inactive); GI50 (K562): 10.8 µM (inactive); GI50 (HCC 2998): 15.8 µM (inactive); GI50 (LOX IMVI): 3.85 µM (inactive); GI50 (HCT-116): 4.4 µM (inactive); GI50 (KM12): 10.7 µM (inactive); GI50 (RPMI-8226): 14.7 µM (inactive); GI50 (HCT-15): 12.7 µM; GI50 (U-251): 12.5 µM (inactive); GI50 (HOP-62): 15.4 µM (inactive); GI50 (COLO 205): 17.1 µM (inactive); GI50 (DMS-114): 5.45 µM (inactive); GI50 (OVCAR-8): 19.9 µM (inactive); GI50 (NCI-H23): 15.5 µM (inactive); GI50 (UO-31): 19.7 µM (inactive); GI50 (M19-MEL): 21.5 µM (inactive); GI50 (SF-295): 18.3 µM (inactive); GI50 (ACHN): 17.5 µM (inactive); GI50 (OVCAR-5): 22.2 µM (inactive); GI50 (CAKI-1): 20.4 µM (inactive); GI50 (NCI-H226): 18.5 µM (inactive); GI50 (SF-539): 17.1 µM (inactive); GI50 (SW-620): 19.2 µM (inactive); GI50 (SN12C): 17.8 µM (inactive); GI50 (UACC-62): 14.8 µM (inactive); GI50 (EKVX): 21.5 µM (inactive); GI50 (CCRF-CEM): 5.55 µM (inactive); GI50 (DMS-273): 11 µM (inactive); GI50 (OVCAR-4): 16.7 µM (inactive); GI50 (SK-MEL-2): 15 µM (inactive); GI50 (SNB-78): 17.5 µM (inactive); GI50 (SF-268): 3.34 µM (inactive); GI50 (HOP-92): 17.4 µM (inactive); GI50 (SNB-19): 16.9 µM (inactive)
